Measured values taken from ChEMBL document CHEMBL4402590, “Small-Molecule Antagonist Targeting Exportin-1 via Rational Structure-Based Discovery” (J Med Chem, 2020).
One block for each molecule: values may come before it. Active and inactive are the calls of the source. No cut-off for these calls is given here.

Legend:
Exportin-1 [1] = target: T1, Exportin-1 (Homo sapiens, UniProt O14980); experiment: Binding affinity to recombinant His-tagged CRM1 (unknown origin) by SPR analysis
[2] = Cytotoxicity activity against human SNK6 cells assessed as GSH:GSSG ratio at 1 uM incubated for 48 hrs by GSH and GSSG assay kit method; format: cell-based
Exportin-1 [3] = target: T1, Exportin-1; experiment: Reversible inhibition of CRM1 in human 293T cells assessed as increase in translocation of NES-GFP to […] at 4 uM incubated for 2 hrs by confocal laser scanning microscopy; format: cell-based
HCT-15 = experiment: Antiproliferative activity against CRM1 siRNA […] human HCT15 cells assessed as reduction in cell viability incubated for 24 hrs; format: functional, cell-based; conditions: HCT-15, 24 h
Homo sapiens = species: Homo sapiens; experiment: Binding affinity to recombinant His-tagged IkBalpha (unknown origin) by SPR analysis
[4] = target: Kelch-like ECH-associated protein 1 (Homo sapiens) (UniProt Q14145); experiment: Binding affinity to recombinant His-tagged Keap1 (unknown origin) by SPR analysis
Sequence of Kelch-like ECH-associated protein 1 (Homo sapiens) (Q14145 whole entry): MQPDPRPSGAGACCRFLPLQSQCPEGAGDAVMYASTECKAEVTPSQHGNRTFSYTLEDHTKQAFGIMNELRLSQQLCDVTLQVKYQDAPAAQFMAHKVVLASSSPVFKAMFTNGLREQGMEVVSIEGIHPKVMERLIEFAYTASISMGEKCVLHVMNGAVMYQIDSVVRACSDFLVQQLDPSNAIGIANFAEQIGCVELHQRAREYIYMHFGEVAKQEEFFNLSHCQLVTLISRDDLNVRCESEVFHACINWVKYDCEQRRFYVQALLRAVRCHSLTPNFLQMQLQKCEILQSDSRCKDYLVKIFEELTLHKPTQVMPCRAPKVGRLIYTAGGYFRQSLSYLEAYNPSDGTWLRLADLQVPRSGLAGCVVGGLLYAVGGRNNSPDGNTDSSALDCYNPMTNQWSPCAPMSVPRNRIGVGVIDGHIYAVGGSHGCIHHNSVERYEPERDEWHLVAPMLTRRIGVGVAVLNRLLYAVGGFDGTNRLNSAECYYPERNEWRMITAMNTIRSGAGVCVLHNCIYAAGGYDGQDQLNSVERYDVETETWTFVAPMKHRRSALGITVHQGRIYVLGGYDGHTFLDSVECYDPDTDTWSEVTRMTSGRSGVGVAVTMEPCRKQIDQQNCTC

Mus musculus [5] = experiment: Anti-inflammatory activity against DSS-induced ulcerative colitis C57BL/6J mouse model assessed as reduction in body weight loss at 3 and 30 mg/kg, po administered for 7 days and measured daily; format: functional, organism-based
Mus musculus [6] = experiment: Anti-inflammatory activity against DSS-induced ulcerative colitis C57BL/6J mouse model assessed as reduction in colon shortening at 3 and 30 mg/kg, po administered for 7 days and measured daily; format: functional, organism-based
Mus musculus [7] = experiment: Anti-inflammatory activity against DSS-induced ulcerative colitis C57BL/6J mouse model assessed as reduction in diarrhea at 3 and 30 mg/kg, po administered for 7 days and measured daily; format: functional, organism-based
Mus musculus [8] = experiment: Anti-inflammatory activity against DSS-induced ulcerative colitis C57BL/6J mouse model assessed as preservation of colon mucosal architecture at 3 and 30 mg/kg, po administered for 7 days and measured on day 7 by […] and eosin staining based microscopic analysis; format: functional, organism-based
Mus musculus [9] = experiment: Anti-inflammatory activity against DSS-induced ulcerative colitis C57BL/6J mouse model assessed as reduction in colon swelling at 3 and 30 mg/kg, po administered for 7 days and measured on day 7 by […] and eosin staining based microscopic analysis; format: functional, organism-based
Mus musculus [10] = experiment: Anti-inflammatory activity against DSS-induced ulcerative colitis C57BL/6J mouse model assessed as reduction in colon inflammation at 3 and 30 mg/kg, po administered for 7 days and measured on day 7 by […] and eosin staining based microscopic analysis; format: functional, organism-based
Mus musculus [11] = experiment: Anti-inflammatory activity against DSS-induced ulcerative colitis C57BL/6J mouse model assessed as reduction in colon ulceration at 3 and 30 mg/kg, po administered for 7 days and measured on day 7 by […] and eosin staining based microscopic analysis; format: functional, organism-based
Mus musculus [12] = experiment: Anti-inflammatory activity against DSS-induced ulcerative colitis C57BL/6J mouse model assessed as reduction in colitis orally administered for 7 days and measured on day 7 by […] and eosin staining based microscopic analysis; format: functional, organism-based
Mus musculus [13] = experiment: Anti-inflammatory activity against DSS-induced ulcerative colitis C57BL/6J mouse model assessed as re-epithelialization of colon at 3 and 30 mg/kg, po administered for 7 days and measured on day 7 by […] and eosin staining based microscopic analysis; format: functional, organism-based
Mus musculus [14] = experiment: Anti-inflammatory activity against DSS-induced ulcerative colitis C57BL/6J mouse model assessed as reduction in body weight loss at 10 mg/kg, po administered for 7 days and measured daily; format: functional, organism-based
Mus musculus [15] = experiment: Anti-inflammatory activity against DSS-induced ulcerative colitis C57BL/6J mouse model assessed as reduction in diarrhea at 10 mg/kg, po administered for 7 days and measured daily; format: functional, organism-based
Mus musculus [16] = experiment: Anti-inflammatory activity against DSS-induced ulcerative colitis C57BL/6J mouse model assessed as restoration of colon length at 10 mg/kg, po administered for 7 days and measured on day 7; format: functional, organism-based
Mus musculus [17] = experiment: Anti-inflammatory activity against DSS-induced ulcerative colitis C57BL/6J mouse model assessed as reduction in colon swelling at 10 mg/kg, po administered for 7 days and measured on day 7; format: functional, organism-based
Mus musculus [18] = experiment: Anti-inflammatory activity against DSS-induced ulcerative colitis C57BL/6J mouse model assessed as reduction in colon inflammation at 10 mg/kg, po administered for 7 days and measured on day 7; format: functional, organism-based
Mus musculus [19] = experiment: Anti-inflammatory activity against DSS-induced ulcerative colitis C57BL/6J mouse model assessed as reduction in colon ulceration at 10 mg/kg, po administered for 7 days and measured on day 7; format: functional, organism-based
Mus musculus [20] = experiment: Anti-inflammatory activity against DSS-induced ulcerative colitis C57BL/6J mouse model assessed as reduction in TNFalpha production at 10 mg/kg, po administered for 7 days and measured on day 7 by ELISA; format: functional, organism-based
Mus musculus [21] = experiment: Anti-inflammatory activity against DSS-induced ulcerative colitis C57BL/6J mouse model assessed as reduction in IL-1beta production at 10 mg/kg, po administered for 7 days and measured on day 7 by ELISA; format: functional, organism-based
Mus musculus [22] = experiment: Anti-inflammatory activity against DSS-induced ulcerative colitis C57BL/6J mouse model assessed as reduction in IL-6 production at 10 mg/kg, po administered for 7 days and measured on day 7 by ELISA; format: functional, organism-based
Mus musculus [23] = experiment: Anti-inflammatory activity against DSS-induced ulcerative colitis C57BL/6J mouse model assessed as reduction in IL-23 production at 10 mg/kg, po administered for 7 days and measured on day 7 by ELISA; format: functional, organism-based
Mus musculus [24] = experiment: Anti-inflammatory activity against DSS-induced ulcerative colitis C57BL/6J mouse model assessed as restoration of damaged colon mucosal layer at 10 mg/kg, po administered for 7 days and measured on day 7 by ELISA; format: functional, organism-based
Mus musculus [25] = experiment: Anti-inflammatory activity against DSS-induced ulcerative colitis C57BL/6J mouse model assessed as reduction in impairment of epithelial barrier genes at 30 mg/kg, po administered for 7 days and measured on day 7 by proteomic analysis; format: functional, organism-based
Mus musculus [26] = experiment: Anti-inflammatory activity against DSS-induced ulcerative colitis C57BL/6J mouse model assessed as reduction in impairment of wound healing genes at 30 mg/kg, po administered for 7 days and measured on day 7 by proteomic analysis; format: functional, organism-based
Mus musculus [27] = experiment: Anti-inflammatory activity against DSS-induced ulcerative colitis C57BL/6J mouse model assessed as reduction in impairment of immune response genes at 30 mg/kg, po administered for 7 days and measured on day 7 by proteomic analysis; format: functional, organism-based
Mus musculus [28] = experiment: Anti-inflammatory activity against DSS-induced ulcerative colitis C57BL/6J mouse model assessed as reduction in impairment of inflammatory response genes at 30 mg/kg, po administered for 7 days and measured on day 7 by proteomic analysis; format: functional, organism-based
Mus musculus [29] = experiment: Anti-inflammatory activity against DSS-induced ulcerative colitis C57BL/6J mouse model assessed as reduction in impairment of host defense genes at 30 mg/kg, po administered for 7 days and measured on day 7 by proteomic analysis; format: functional, organism-based
Mus musculus [30] = experiment: Anti-inflammatory activity against DSS-induced ulcerative colitis C57BL/6J mouse model assessed as reduction in impairment of T-cell receptor signalling genes at 30 mg/kg, po administered for 7 days and measured on day 7 by proteomic analysis; format: functional, organism-based
Mus musculus [31] = experiment: Anti-inflammatory activity against DSS-induced ulcerative colitis C57BL/6J mouse model assessed as reduction in impairment of cell-cell adhesion genes at 30 mg/kg, po administered for 7 days and measured on day 7 by proteomic analysis; format: functional, organism-based
Mus musculus [32] = experiment: Anti-inflammatory activity against DSS-induced ulcerative colitis C57BL/6J mouse model assessed as reduction in impairment of NF-kappaB signalling genes at 30 mg/kg, po administered for 7 days and measured on day 7 by proteomic analysis; format: functional, organism-based
Mus musculus [33] = experiment: In vivo inhibition of NFkappaB in C57BL/6J mouse DSS-induced ulcerative colitis model assessed as increase in accumulation of IkBalpha in nucleus at 400 nM, po by confocal microscopy; format: functional, organism-based
Mus musculus [34] = experiment: In vivo inhibition of NFkappaB in C57BL/6J mouse DSS-induced ulcerative colitis model assessed as increase in accumulation of NRF2 in nucleus at 400 nM, po by confocal microscopy; format: functional, organism-based
Mus musculus [35] = experiment: In vivo inhibition of NFkappaB in C57BL/6J mouse DSS-induced ulcerative colitis model assessed as reduction in NFkappaB p65 expression at 10 and 30 mg/kg, po administered for 7 days and measured on day 7 by Western blot analysis; format: functional, organism-based
Mus musculus [36] = experiment: Anti-inflammatory activity against DSS-induced ulcerative colitis C57BL/6J mouse model assessed as reduction in COX-2 production at 10 mg/kg, po administered for 7 days and measured on day 7 by ELISA; format: functional, organism-based
Mus musculus [37] = experiment: In vivo inhibition of NFkappaB in C57BL/6J mouse DSS-induced ulcerative colitis model assessed as reduction in NQO1 expression at 10 and 30 mg/kg, po administered for 7 days and measured on day 7 by Western blot analysis; format: functional, organism-based
Mus musculus [38] = experiment: In vivo inhibition of NFkappaB in C57BL/6J mouse DSS-induced ulcerative colitis model assessed as increase in Nrf2 expression at 10 and 30 mg/kg, po administered for 7 days and measured on day 7 by Western blot analysis; format: functional, organism-based
Mus musculus [39] = experiment: In vivo inhibition of NFkappaB in C57BL/6J mouse DSS-induced ulcerative colitis model assessed as increase in HO1 expression at 10 and 30 mg/kg, po administered for 7 days and measured on day 7 by Western blot analysis; format: functional, organism-based
Mus musculus [40] = experiment: In vivo inhibition of NFkappaB in C57BL/6J mouse DSS-induced ulcerative colitis model assessed as downregulation of MRP8 expression at 10 and 30 mg/kg, po administered for 7 days and measured on day 7 by Western blot analysis; format: functional, organism-based
Mus musculus [41] = experiment: In vivo inhibition of NFkappaB in C57BL/6J mouse DSS-induced ulcerative colitis model assessed as downregulation of MRP14 expression at 10 and 30 mg/kg, po administered for 7 days and measured on day 7 by Western blot analysis; format: functional, organism-based
Mus musculus [42] = experiment: In vivo inhibition of NFkappaB in C57BL/6J mouse DSS-induced ulcerative colitis model assessed as restoration of occludin expression at 10 and 30 mg/kg, po administered for 7 days and measured on day 7 by Western blot analysis; format: functional, organism-based
[43] = Stability of compound in artificial intestinal juice assessed as half life; format: ADME
[44] = Permeability in human Caco2 cells at 10 uM incubated for 4 hrs by LC-MS/MS analysis; format: ADME, cell-based; conditions: caco-2, 4 h
[45] = Stability of compound in artificial gastric juice assessed as half life; format: ADME
[46] = Acute toxicity in C57BL/6 mouse assessed as lethargy at 300 to 600 mg/kg, po administered for 7 days and measured on day 7; format: organism-based; conditions: in vivo, 168 h
[47] = Acute toxicity in C57BL/6 mouse assessed as weight loss at 300 to 600 mg/kg, po administered for 7 days and measured on day 7; format: organism-based; conditions: in vivo, 168 h
[48] = Acute toxicity in C57BL/6 mouse assessed as sickness indication at 300 to 600 mg/kg, po administered for 7 days and measured on day 7; format: organism-based; conditions: in vivo, 168 h
[49] = Toxicity in C57BL/6 mouse assessed as effect on colon at 300 to 600 mg/kg, po administered for 7 days and measured on day 14; format: organism-based; conditions: in vivo, 168 h
[50] = Toxicity in C57BL/6 mouse assessed as effect on spleen at 300 to 600 mg/kg, po administered for 7 days and measured on day 14; format: organism-based; conditions: in vivo, 168 h
[51] = target: Voltage-gated inwardly rectifying potassium channel KCNH2 (Homo sapiens, UniProt Q12809); experiment: Inhibition of human ERG expressed in human HEK293 cells by whole cell patch clamp assay; format: cell-based
Sequence of Voltage-gated inwardly rectifying potassium channel KCNH2 (Q12809 whole entry): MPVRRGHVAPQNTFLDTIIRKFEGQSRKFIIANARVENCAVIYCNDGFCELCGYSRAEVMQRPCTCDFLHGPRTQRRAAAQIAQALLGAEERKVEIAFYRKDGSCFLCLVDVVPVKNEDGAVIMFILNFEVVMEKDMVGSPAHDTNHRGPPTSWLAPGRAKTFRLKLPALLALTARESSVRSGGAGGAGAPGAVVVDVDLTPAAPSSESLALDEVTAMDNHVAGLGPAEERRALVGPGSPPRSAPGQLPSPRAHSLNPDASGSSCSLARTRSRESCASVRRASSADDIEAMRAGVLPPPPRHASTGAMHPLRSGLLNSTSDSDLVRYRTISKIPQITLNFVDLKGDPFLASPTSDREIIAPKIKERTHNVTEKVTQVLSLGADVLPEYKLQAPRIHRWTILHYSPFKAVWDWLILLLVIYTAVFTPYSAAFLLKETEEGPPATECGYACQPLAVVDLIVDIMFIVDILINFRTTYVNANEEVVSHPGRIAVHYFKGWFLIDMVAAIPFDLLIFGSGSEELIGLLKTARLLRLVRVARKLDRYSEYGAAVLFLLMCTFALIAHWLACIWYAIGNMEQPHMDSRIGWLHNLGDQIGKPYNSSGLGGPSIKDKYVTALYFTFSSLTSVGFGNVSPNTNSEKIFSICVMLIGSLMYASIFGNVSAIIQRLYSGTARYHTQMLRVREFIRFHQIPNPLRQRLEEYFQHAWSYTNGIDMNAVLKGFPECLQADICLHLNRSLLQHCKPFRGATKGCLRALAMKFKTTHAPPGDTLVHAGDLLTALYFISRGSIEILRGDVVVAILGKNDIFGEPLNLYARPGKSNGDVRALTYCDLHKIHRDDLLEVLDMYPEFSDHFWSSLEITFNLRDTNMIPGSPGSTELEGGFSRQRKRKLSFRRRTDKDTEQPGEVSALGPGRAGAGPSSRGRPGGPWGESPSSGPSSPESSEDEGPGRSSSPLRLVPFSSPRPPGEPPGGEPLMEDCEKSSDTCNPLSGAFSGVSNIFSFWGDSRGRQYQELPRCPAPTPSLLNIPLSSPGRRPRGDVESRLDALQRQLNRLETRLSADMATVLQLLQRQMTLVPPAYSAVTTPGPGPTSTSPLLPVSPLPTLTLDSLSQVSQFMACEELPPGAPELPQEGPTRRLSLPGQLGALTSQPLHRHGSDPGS

T1 sequence (O14980 whole entry): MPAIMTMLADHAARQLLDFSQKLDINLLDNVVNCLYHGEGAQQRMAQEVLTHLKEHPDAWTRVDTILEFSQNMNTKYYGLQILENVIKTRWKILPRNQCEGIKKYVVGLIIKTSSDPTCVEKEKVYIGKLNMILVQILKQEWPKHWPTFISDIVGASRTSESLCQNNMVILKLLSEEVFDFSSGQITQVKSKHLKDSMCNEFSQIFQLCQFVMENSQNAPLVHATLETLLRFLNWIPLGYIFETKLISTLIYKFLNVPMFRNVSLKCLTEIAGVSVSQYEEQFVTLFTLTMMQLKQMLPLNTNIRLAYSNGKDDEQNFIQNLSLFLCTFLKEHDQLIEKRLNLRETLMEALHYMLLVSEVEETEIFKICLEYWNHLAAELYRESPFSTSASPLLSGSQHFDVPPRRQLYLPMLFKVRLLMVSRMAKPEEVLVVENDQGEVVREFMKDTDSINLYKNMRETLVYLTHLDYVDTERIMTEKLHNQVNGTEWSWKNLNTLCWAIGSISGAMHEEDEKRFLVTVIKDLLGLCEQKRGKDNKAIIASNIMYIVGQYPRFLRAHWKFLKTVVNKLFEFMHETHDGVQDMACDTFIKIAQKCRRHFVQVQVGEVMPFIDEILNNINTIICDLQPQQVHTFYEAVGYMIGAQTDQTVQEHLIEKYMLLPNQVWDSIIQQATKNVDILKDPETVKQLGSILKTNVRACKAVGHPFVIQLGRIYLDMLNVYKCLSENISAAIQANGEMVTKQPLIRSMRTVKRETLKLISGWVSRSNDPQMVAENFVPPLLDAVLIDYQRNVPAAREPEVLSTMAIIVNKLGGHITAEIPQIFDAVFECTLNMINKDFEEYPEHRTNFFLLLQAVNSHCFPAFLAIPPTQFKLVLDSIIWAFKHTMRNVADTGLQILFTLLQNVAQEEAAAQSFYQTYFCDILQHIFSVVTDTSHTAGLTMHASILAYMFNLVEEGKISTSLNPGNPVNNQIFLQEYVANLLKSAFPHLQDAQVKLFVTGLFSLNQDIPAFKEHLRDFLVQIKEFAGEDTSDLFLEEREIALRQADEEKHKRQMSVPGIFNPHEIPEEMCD

SMILES: [O-][S@@+](/C=C/CCN=C=S)c1cc(C(F)(F)F)cc(C(F)(F)F)c1
Kd (Exportin-1 [1]): 0.0269 µM
Activity [2]: Non-Toxic
inhibition (Exportin-1 [3]): 100%
IC50 (HCT-15): 14.7 µM
Activity (Homo sapiens): inactive
Activity [4]: inactive
Activity (Mus musculus [5]): Active
Activity (Mus musculus [6]): Active
Activity (Mus musculus [7]): Active
Activity (Mus musculus [8]): Active
Activity (Mus musculus [9]): Active
Activity (Mus musculus [10]): Active
Activity (Mus musculus [11]): Active
Activity (Mus musculus [12]): Dose-dependent effect
Activity (Mus musculus [13]): Active
Activity (Mus musculus [14]): Active
Activity (Mus musculus [15]): Active
Activity (Mus musculus [16]): Active
Activity (Mus musculus [17]): Active
Activity (Mus musculus [18]): Active
Activity (Mus musculus [19]): Active
Activity (Mus musculus [20]): Active
Activity (Mus musculus [21]): Active
Activity (Mus musculus [22]): Active
Activity (Mus musculus [23]): Active
Activity (Mus musculus [24]): Active
Activity (Mus musculus [25]): Active
Activity (Mus musculus [26]): Active
Activity (Mus musculus [27]): Active
Activity (Mus musculus [28]): Active
Activity (Mus musculus [29]): Active
Activity (Mus musculus [30]): Active
Activity (Mus musculus [31]): Active
Activity (Mus musculus [32]): Active
inhibition (Mus musculus [33]): Active
inhibition (Mus musculus [34]): Active
inhibition (Mus musculus [35]): Active
Activity (Mus musculus [36]): Active
inhibition (Mus musculus [37]): Active
inhibition (Mus musculus [38]): Active
inhibition (Mus musculus [39]): Active
inhibition (Mus musculus [40]): Active
inhibition (Mus musculus [41]): Active
inhibition (Mus musculus [42]): Active
half-life [43]: 8 h
permeability [44]: Permeable
half-life [45]: 24 h
Activity [46]: Non-Toxic
Activity [47]: Non-Toxic
Activity [48]: Non-Toxic
Activity [49]: Non-Toxic
Activity [50]: Non-Toxic
IC50 [51]: > 30 µM

inhibition (Exportin-1 [3]): inactive
SMILES: O=C(/C=C\n1cnc(-c2cc(C(F)(F)F)cc(C(F)(F)F)c2)n1)NNc1cnccn1
